Counter-ions that a name gives are not always drawn.
Biological target: T1, human D3 dopamine receptors (Homo sapiens, UniProt P35462)
T1 construct: expressed in transfected cells; host or cells: CHO cells
Test: [125I] iodosulpride displacement binding to cloned human D3 dopamine receptors expressed in CHO cells
Conditions: displacement of 0.1 nM [125I] iodosulpride, CHO cell membranes, 30 min at 37° C.; read-out: IC50 values at the human D3 receptor
Protocol: The inhibition constants (Ki) of test compounds for displacement of [^125 I] iodosulpride binding to human D3 dopamine receptors expressed in CHO cells were determined as follows. […] Cultures were grown as monolayers or in suspension in standard cell culture media. Cells were recovered by scraping (from monolayers) or by centrifugation (from suspension cultures), and were washed two or three times by suspension in phosphate buffered saline followed by collection by centrifugation. Cell pellets were stored frozen at -40° C. Crude cell membranes were prepared by homogenisation followed by high-speed centrifugation, and characterisation of cloned receptors achieved by radioligand binding.
Cell pellets were gently thawed at room temperature, and resuspended in about 20 volumes of ice-cold 50 mM Tris salts (pH 7.4@37° C.), 20 mM EDTA, 0.2M sucrose. The suspension was homogenised using an Ultra-Turrax at full speed for 15 sec. The homogenate was centrifuged at 18,000 r.p.m for 20 min at 4° C. in a SorvalI RC5C centrifuge. The membrane pellet was resuspended in ice-cold 50 mM Tris salts (pH 7.4@37° C.), using an Ultra-Turrax, and recentrifuged at 18,000 r.p.m for 15 min at 4° C. in a Sorvall RC5C. The membranes were washed two more times with ice-cold 50 mM Tris salts (pH 7.4@37° C.). The final pellet was resuspended in 50 mM Tris salts (pH 7.4@37° C.), and the protein content determined using bovine serum albumin as a standard (Bradford, M. M. (1976) Anal. Biochem. 72, 248-254).
Crude cell membranes were incubated with 0.1 nM [^125 I] iodosulpride (~2000 Ci/mmol; Amersham, U. K.), and the test compound in a buffer containing 50 mM Tris salts (pH 7.4@37° C.), 120 mM NaCl, 5 mM KCl, 2 mM CaCl2, 1 mM MgCl2, 0.1% (w/v) bovine serum albumin, in a total volume of 1 ml for 30 min at 37° C. […] The radioactivity on the filters was measured using a Cobra gamma counter (Canberra Packard). […]
Competition curves were analysed simultaneously whenever possible using non-linear least-squares fitting procedures, capable of fitting one, two or three site models.

T1 sequence (P35462 whole entry): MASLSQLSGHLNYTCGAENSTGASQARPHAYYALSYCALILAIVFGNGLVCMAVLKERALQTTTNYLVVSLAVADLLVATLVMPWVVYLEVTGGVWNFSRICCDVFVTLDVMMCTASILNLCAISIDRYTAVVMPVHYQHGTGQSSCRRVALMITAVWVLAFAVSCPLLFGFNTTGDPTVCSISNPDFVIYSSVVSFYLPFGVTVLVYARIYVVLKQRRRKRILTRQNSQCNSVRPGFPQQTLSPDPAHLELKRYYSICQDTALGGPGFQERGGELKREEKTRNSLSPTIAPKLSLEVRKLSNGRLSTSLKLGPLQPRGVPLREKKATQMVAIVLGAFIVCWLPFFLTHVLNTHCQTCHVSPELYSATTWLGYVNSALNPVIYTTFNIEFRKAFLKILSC

IC50 [µM] | Compound
0.005 to 0.02 | CCN(Cc1ccccc1)Cc1ccc(-c2cc(S(=O)(=O)Oc3ccccc3)ccc2OC)[nH]1 [Example 3, 2-(N-Benzyl-N-ethyl)aminomethyl-5-(2-methoxy-5-phenoxysulphonylphenyl)-1H-pyrrole hydrochloride]
0.005 to 0.02 | CCN1CCCC1c1ccc(-c2cc(S(=O)(=O)Oc3ccccc3)ccc2OC)[nH]1 (racemic) [Example 2, 2-(2-(R,S)-(1-Ethylpyrrolidinyl))-5-(2-methoxy-5-phenoxysulphonylphenyl)-1H-pyrrole hydrochloride.]
0.005 to 0.02 | COc1ccc(S(=O)(=O)Oc2ccccc2)cc1-c1ccc(CN2CCCCCC2c2ccccc2)[nH]1 (stereo not drawn) [Example 1, 2-(2-Methoxy-5-Phenoxysulfonylphenyl)-5-(1-[2-phenylazacycloheptyl]methyl)-1H-pyrrole, hydrochloride]

From patent US5637600A, “Phenylpyrrole derivatives and their use as dopamine D3 antagonists” (SmithKline Beecham p.l.c., priority 1994, dated 1997)
